Laboratory results published in US7166582B2, “Antiallergic composition” (J-Oil Mills, Inc., priority 2003, dated 2007).

What was measured:
IgE = settings: Japanese Patent Application Laid-open No. 2001-288093; cited from earlier work
atopic dermatitis = settings: Japanese Patent Application Laid-open No. Hei 11-255656; cited from earlier work
[1] = system: dermatitis induced by repeated application of hapten on an NC/Nga mouse; experiment: Performance Evaluation Test 1: dermatitis induced by repeated application of hapten (PiCl) on NC/Nga mice; type: in vivo, NC/Nga Tnd Crj male mice; settings: 0.5% in AIN93G feed; for score of dermatitis (progress of the atopic dermatitis): PiCl induction once a week for five weeks, vs control group, FIGS. 1 and 2
Experimental: The performance of stachyose mixed in livestock feeds was evaluated against the dermatitis induced by repeated application of hapten on an NC/Nga mouse frequently used as an atopic dermatitis model animal (M. Okada et al., Oyo Yakuri/Pharmcometrics, vol. 59, 135–139 (2000)).
(§1) NC/Nga Tnd Crj male mice at six weeks of age (purchased from Nihon Charles River) were habituated for two weeks. The animals decided as healthy were used for the experiments after an observation of general conditions and body weight measurement. The mice were divided into three groups so that the body weight was averaged. One group was composed of nine mice. A purified livestock feed (AIN93G produced by Oriental Yeast Co.) was used as a basic feed. The mice in Group 1 (a control group) was fed with the purified feed, while the mice in Groups 2 and 3 were fed with a feed prepared by adding the test samples as shown In Table 1 in the basic feed.
Stachyose used in this test was purified to a purity of 98% by ion exchange chromatography after extracting from soybeans with 70% ethanol. Saccharose used in this test was purchased from Wako Junyaku Kabushiki Kaisha.
The mice at eight weeks of age were used for sensation as follows. […]
The symptoms of the atopic dermatitis were observed as follows. The skin condition was observed twice a week starting from a day before the first induction, and the following items were evaluated based on the criteria of clinical syndromes of the human atopic dermatitis. […]
(§2) The score of dermatitis, serum total IgE concentration, and the average body weight and standard deviation thereof were calculated. The significant difference was evaluated by the Student's t-test. A significance level of 5% was evaluated as significant, and the results of the Student's t-test were expressed by dividing into a level of less than 5% (P<0.05) and less than 1% (P<0.01).

[2] = system: conventional grade NC/Nga mice that spontaneously start the atopic dermatitis; experiment: Performance Evaluation Test 2: spontaneous atopic dermatitis in conventional grade NC/Nga mice; type: in vivo, Conventional grade female NC/Nga mice; settings: feed supplemented with 1% stachyose
Description: The effect of stachyose on the dermatitis was investigated using conventional grade NC/Nga mice that spontaneously start the atopic dermatitis without applying any haptens (H. Matsuda et al., International Immunology, vol. 9, 461–466 (1997)).
Conventional grade female NC/Nga mice at four weeks of age (purchased from Nihon SLC) were habituated for one week. The mice were divided into two groups so that the body weight was averaged. One group was composed of six mice. All the mice were freely fed on the purified livestock feed (AIN93G) before grouping, and the stachyose administration group was fed on a feed supplemented with 1% stachyose after grouping. The skin conditions were observed and evaluated once per two weeks from the day of start of grouping. The evaluation method was the same as in performance evaluation method 1.

serum total IgE = experiment: Serum total IgE concentration by EIA in PiCl-sensitized NC/Nga mice; type: in vivo, NC/Nga Tnd Crj male mice; settings: 0.5% in AIN93G feed; blood on 43rd day after administration; vs control group; FIG. 4
Description: as §1
The serum total IgE concentration was measured as follows. The blood was extracted on day four before administration, and on 43 rd day after administration (the day for starting administration is counted as the first day). The blood (200 μL) is sampled from the orbital plexus venosus using a heparinated capillary. […]
as §2

Compound: OC[C@H]1O[C@H](OC[C@H]2O[C@H](O[C@]3(CO)O[C@H](CO)[C@@H](O)[C@@H]3O)[C@H](O)[C@@H](O)[C@@H]2O)[C@H](O)[C@@H](O)[C@H]1O [raffinose]
- production of IgE (IgE): has an action for suppressing production of IgE
- anti-atopic dermatitis action (atopic dermatitis): has an anti-atopic dermatitis action

Compound: OC[C@H]1O[C@@](CO)(O[C@H]2O[C@H](CO)[C@@H](O)[C@H](O)[C@H]2O)[C@@H](O)[C@@H]1O [saccharose, reference compound]
- score of dermatitis (progress of the atopic dermatitis) [1]: No effects were observed

Compound: OC[C@H]1O[C@H](OC[C@H]2O[C@H](OC[C@H]3O[C@H](O[C@]4(CO)O[C@H](CO)[C@@H](O)[C@@H]4O)[C@H](O)[C@@H](O)[C@@H]3O)[C@H](O)[C@@H](O)[C@H]2O)[C@H](O)[C@@H](O)[C@H]1O [stachyose]
- onset of dermatitis ([2]; 6 to 8 weeks after grouping, control: evident dermatitis on face and ears): no onset of dermatitis was observed at all
- scores of dermatitis ([2]; FIG. 5): the effect of stachyose is evident
- onset of dermatitis ([2]; week four after grouping, control: five of six mice with dermatitis on the face): no onset of the dermatitis was observed
- score of dermatitis (progress of the atopic dermatitis) [1]: progress of the atopic dermatitis was evidently blocked
- appearance of the skin (photograph of representative mouse) ([1]; compared with the control group (Group 1), FIG. 3): An evident difference of the appearance of the skin was observed
- level of serum total IgE (serum total IgE): does not influence the level of IgE
